Source: patent US7462598B2, “Antimicrobial theta defensins, analogs thereof, and methods of use” (priority 2002, dated 2008)
Bridge positions count the residues as written; N and C are the ends. Peptide text beside a SMILES is read from it.

Tests used:
S. aureus 502a = test: Cell-suspension microbicidal assay (MMC); format: cell-based, Staphylococcus aureus; conditions: lowest concentration that reduced cell viability by 99.9%; 10 mM PIPES, 5 mM glucose, pH 7.4; 2 h 37° C.
In short: (§1)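 Log-phase microbes (2×10^6 CFU/ml) exposed to two-fold peptide dilutions (0.062-8.0 μg/ml) in 10 mM PIPES, 5 mM glucose, pH 7.4, 2 h at 37 °C, then diluted 1:10 to 1:10^6 in broth and grown 24-48 h. MMC is the lowest concentration giving ≥99.9% killing (no pellet at 1:10^3).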

E. coli ML35 [1] = test: Cell-suspension microbicidal assay (MMC); format: cell-based, Escherichia coli; conditions: lowest concentration that reduced cell viability by 99.9%; 10 mM PIPES, 5 mM glucose, pH 7.4; 2 h 37° C.
In short: as §1

C. albicans 16820 = test: Cell-suspension microbicidal assay (MMC); format: cell-based, Candida albicans; conditions: lowest concentration that reduced cell viability by 99.9%; 10 mM PIPES, 5 mM glucose, pH 7.4; 2 h 37° C.
In short: as §1

[2] = tested on: S. aureus 502a, E. coli ML35, and C. albicans 16820; test: Cell-suspension microbicidal assay, statements across the test organisms (lowest MMC, overall ranges); format: cell-based
In short: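 Log-phase organisms (2×10^6 CFU/ml) were exposed for 2 h at 37° C. to peptide (0.062–8.0 μg/ml final) in 10 mM PIPES/5 mM glucose, pH 7.4, then serially diluted in broth and grown 24–48 h. MMC was defined as ≥99.9% killing (no pellet at 1:10^3). SI was calculated as concentration giving 3% hemolysis in PBS divided by lowest MMC.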

E. coli ML35 [3] = test: Membrane permeabilization assay (ONPG hydrolysis); format: cell-based, Escherichia coli; conditions: rates at 1 μg/ml concentration of each peptide
In short: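 ONPG hydrolysis by log-phase E. coli ML35 (1×10^6 CFU/ml) in 10 mM PIPES pH 7.4 with 3 mM ONPG, peptides at 0-8.0 μg/ml final; A405 followed for 60 min. Control: 0-4 μg/ml peptide incubated with recombinant β-galactosidase and 3 mM ONPG.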

[4] = molecular target: T1, recombinant β-galactosidase (Escherichia coli, UniProt P00722); test: Inhibition of purified β-galactosidase (ONPG hydrolysis); format: biochemical; conditions: 4 μg/ml, the highest peptide concentration tested; 10 nM enzyme
T1 construct: gift from Dr. Donald P. Satchell, University of California, Irvine, Department of Pathology
Description: Dose-dependent rates of ONPG hydrolysis were determined using 10 nM of purified β-galactosidase.
The effect of each peptide on β-galactosidase-dependent ONPG hydrolysis was determined by incubating 0-4 μg/ml of each peptide with recombinant β-galactosidase (a gift from Dr. Donald P. Satchell, University of California, Irvine, Department of Pathology) and 3 mM ONPG as described above.

E. coli ML35 [5] = test: Agar diffusion assay; format: cell-based, Escherichia coli; conditions: diameter of clearing, FIG. 3
Description: Briefly, 10-μl wells were bored in a 9-cm^2 plate of agarose, buffered with 10 mM 1,4-piperazinebis(ethanesulfonic acid) (PIPES), pH 7.4, containing 5 mM glucose, and seeded with 1×10^6 mid-log phase cells. Five-μl aliquots of peptides, dissolved in 0.01% HOAc at 10-300 μg/ml, were added to each well. After incubation at 37° C. for 2 h, the seeded agar was overlaid with molten agarose containing 6% trypticase soy broth (for bacteria) or Sabouraud dextrose broth (for fungi). Plates were incubated at 37° C. for 18-24 h, and antimicrobial activity was determined by measuring the diameter of clearing around each well.

E. coli ML35 [6] = test: Microbicidal assay by colony counting (Example I); format: cell-based, Escherichia coli
Description: The limit of detection (1 colony per plate) was equal to 1×10^3 CFU/ml in the incubation mixture.
Microbicidal activity of each peptide was determined by incubating 2×10^6 CFU/ml with peptides (0.5-12 μg/ml) in 50 μl of 10 mM PIPES buffer containing 5 mM glucose, pH 7.4. […] After 37° C. incubation for 18-48 h, colonies were counted and cell survival was expressed as CFU/ml.

T1 sequence (P00722 2-1024): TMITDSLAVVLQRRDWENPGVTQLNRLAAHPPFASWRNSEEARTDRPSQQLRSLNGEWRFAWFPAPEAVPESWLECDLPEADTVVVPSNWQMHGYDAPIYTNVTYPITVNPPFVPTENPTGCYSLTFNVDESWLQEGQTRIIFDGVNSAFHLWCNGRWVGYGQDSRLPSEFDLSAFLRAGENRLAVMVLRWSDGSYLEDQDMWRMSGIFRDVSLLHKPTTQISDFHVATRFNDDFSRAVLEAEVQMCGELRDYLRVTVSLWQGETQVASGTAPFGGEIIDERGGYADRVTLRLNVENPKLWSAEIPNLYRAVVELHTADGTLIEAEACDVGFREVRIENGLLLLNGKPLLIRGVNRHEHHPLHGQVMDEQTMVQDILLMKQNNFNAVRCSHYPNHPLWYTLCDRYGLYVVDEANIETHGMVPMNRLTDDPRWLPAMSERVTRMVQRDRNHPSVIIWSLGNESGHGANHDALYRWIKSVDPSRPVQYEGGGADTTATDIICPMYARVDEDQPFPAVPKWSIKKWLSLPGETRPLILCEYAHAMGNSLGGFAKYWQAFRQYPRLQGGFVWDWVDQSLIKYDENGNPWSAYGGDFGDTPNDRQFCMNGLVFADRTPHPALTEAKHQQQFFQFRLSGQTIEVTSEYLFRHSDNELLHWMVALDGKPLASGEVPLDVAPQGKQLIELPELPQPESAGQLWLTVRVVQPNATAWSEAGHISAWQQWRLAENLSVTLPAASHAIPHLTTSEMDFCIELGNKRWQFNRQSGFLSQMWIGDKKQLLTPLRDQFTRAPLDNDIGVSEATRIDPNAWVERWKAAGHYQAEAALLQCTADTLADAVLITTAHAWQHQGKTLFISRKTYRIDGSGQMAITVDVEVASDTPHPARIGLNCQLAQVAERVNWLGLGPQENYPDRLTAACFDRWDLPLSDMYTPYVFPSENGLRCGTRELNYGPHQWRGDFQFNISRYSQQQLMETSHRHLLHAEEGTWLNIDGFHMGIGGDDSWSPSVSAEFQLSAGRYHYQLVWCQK

SMILES: CC(C)C[C@@H]1NC(=O)[C@@H]2CSSC[C@H](NC(=O)[C@H](CCCNC(=N)N)NC(=O)[C@@H]3CSSC[C@H](NC1=O)C(=O)N[C@@H](CCCNC(=N)N)C(=O)N[C@@H](CCCNC(=N)N)C(=O)NCC(=O)N[C@@H](C(C)C)C(=O)N3)C(=O)N[C@@H](CC(C)C)C(=O)N[C@H]1CSSC[C@H](NC(=O)[C@H](C(C)C)NC(=O)CNC(=O)[C@H](CCCNC(=N)N)NC(=O)[C@H](CCCNC(=N)N)NC1=O)C(=O)N[C@@H](CCCNC(=N)N)C(=O)N2 [RTD-3] (cyclo(CLCRRGVCRCLCRRGVCR); disulfide 1-10, 3-8, 12-17)
- MMC, S. aureus (S. aureus 502a): 1.0 µg/mL
- MMC, E. coli (E. coli ML35 [1]): 2.0 µg/mL
- MMC, C. albicans (C. albicans 16820): 1.0 µg/mL
- MMC, range over the test organisms ([2]; S. aureus, E. coli and C. albicans, 10 mM PIPES, 5 mM glucose, pH 7.4): 1 to 2 µg/mL
- M ([2]; peptide concentration that kill 99.9% of either S. aureus, E. coli, or C. albicans, lowest MMC value): 1 µg/mL
- ONPG hydrolysis (E. coli ML35 [3]): 9.2 (A405/sec) · 10^−5
- reduction of ONPG hydrolysis by purified β-galactosidase [4]: 50%
- fold less active than RTD-1 and RTD-2 against E. coli (E. coli ML35 [5]): 2- to 3 fold
- amount of peptide required to achieve the microbicidal effect of RTD-1 and 2 (E. coli ML35 [6]; killing of E. coli, 2 h): approximately twice as much of the peptide was required
- activity against E. coli compared with RTD-1 and -2 (E. coli ML35 [6]; longer incubation times (4 or 6 h)): nearly equivalent
